Patent publication US20250271419A1, “PLACENTA ORGANOID ON-A-CHIP AND USE THEREOF” (THE REGENTS OF THE UNIVERSITY OF CALIFORNIA, priority 2024, published 2025)
Like-named read-outs stand apart in the source and are kept apart here.

Legend:
[1] = system: day 7 placental organoids; assay: Drug toxicity response, CellTiter-Glo luminescent cell viability, day 7 placental organoids; conditions: Homo sapiens, read-out: IC50 (drug toxicity based on cell survival)
From the text: It is well-established that ethical constraints hamper the testing of drugs on pregnant women. Furthermore, maternal drug usage is known to promote a range of conditions, such as fetal drug tolerance, antibiotic resistance, toxicity, obesity and diabetes. While it is rendered safe to use certain drugs during pregnancy, the actual short as well as long-term effects of these drugs on fetal health cannot be currently studied. Therefore, as an application of the placental organoids systems in drug toxicity testing, these organoids were treated with commonly used compounds such as nicotine, acetaminophen, ibuprofen and lumiracoxib. […] Acetaminophen, also known as paracetamol, is usually considered as a safe antipyretic and analgesic medicine for pregnant women. However, acetaminophen and its metabolites easily cross the placenta and are potentially toxic as it has previously been detected in the fetus and is implicated in adverse birth and later life health outcomes. Nonsteroidal anti-inflammatory drugs (NSAIDs) such as Ibuprofen are the most commonly used medications for the treatment of pain, inflammation and fever during pregnancy. Ibuprofen readily enters fetal circulation, raising concerns about its long-term effects on fetal health and development. While the use of another NSAID, Lumiracoxib, has not been adequately investigated. […] Therefore, it has been recommended that it should not be used during the first two trimesters of pregnancy unless it justifies the potential risk to the fetus. Day 7and day 15 placental organoids were treated with increasing doses of drugs such as nicotine, acetaminophen, ibuprofen and lumiracoxib. The drug toxicity and IC50 value of the drugs was determined based on cell survival at 24 and 48 hours post drug exposure.
Placental organoids (12-15 organoids/well) were treated with different concentrations of nicotine (0.1, 0.5, 1, 5, 10, 20 mg/mL), acetaminophen (0.01, 0.1, 1, 5, 10, 20 mM), ibuprofen (25, 50, 100, 200, 400, 800 mg/mL) and lumiracoxib (0.01, 0.1, 1, 5, 10, 20 mM) for 24 and 48 hours to determine the IC50 value for drug toxicity. Post-incubation with the drugs for 24 and 48 hours respectively, the cell viability was determined using a CellTiter-Glo Luminescent cell viability assay (Promega #G7570). Briefly, cell supernatant was mixed with equal volume of CellTiter-Glo reagent for 2 minutes on an orbital shaker, incubated for 10 minutes in dark at room temperature and then the luminescence was determined using a Tecan plate reader (Tecan Spark).

[2] = crosses the placental barrier; cited from earlier work

Row | Compound | IC50 ([1]; 24 hours post drug exposure) | IC50 ([1]; 48 hours post drug exposure) | fetal concentration higher than mother [2] [%]
1 | Cc1ccc(Nc2c(F)cccc2Cl)c(CC(=O)O)c1 [lumiracoxib] | 841 µM | 220 µM | 
2 | CC(C)Cc1ccc(C(C)C(=O)O)cc1 (centres unmarked) [ibuprofen] |  | 45300 µg/mL | 
3 | CN1CCCC1c1cccnc1 (centres unmarked) [nicotine] | 5700 µg/mL | 1190 µg/mL | 15
4 | CC(=O)Nc1ccc(O)cc1 [acetaminophen] | 2680 µM | 1110 µM | 
